Measured values as given in PubChem BioAssay (NCI).
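Cells were grown in 96-well plates and exposed to each compound for 48 hours at five concentrations; endpoints were interpolated linearly between bracketing concentrations, or set to the highest concentration if not reached. TGI: total growth inhibition.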

Key:
Test in all cases: NCI tumour cell line growth inhibition, 48 h
786-0 renal = test system: 786-0 renal
A498 renal = test system: A498 renal
BT-549 breast = test system: BT-549 breast
DU-145 prostate = test system: DU-145 prostate
HL-60(TB) leukemia = test system: HL-60(TB) leukemia
K-562 leukemia = test system: K-562 leukemia
MALME-3M melanoma = test system: MALME-3M melanoma
MDA-MB-435 = test system: MDA-MB-435
MDA-N = test system: MDA-N
MOLT-4 leukemia = test system: MOLT-4 leukemia
NCI-H460 lung = test system: NCI-H460 lung
OVCAR-3 ovarian = test system: OVCAR-3 ovarian
OVCAR-4 ovarian = test system: OVCAR-4 ovarian
OVCAR-5 ovarian = test system: OVCAR-5 ovarian
PC-3 prostate = test system: PC-3 prostate
RXF 393 renal = test system: RXF 393 renal
SF-295 CNS = test system: SF-295 CNS
SF-539 CNS = test system: SF-539 CNS
TK-10 renal = test system: TK-10 renal
DMS 273 small cell lung = test system: DMS 273 small cell lung

Structure (SMILES) | TGI (786-0 renal) [µM] | TGI (A498 renal) [µM] | TGI (BT-549 breast) [µM] | TGI (DU-145 prostate) [µM] | TGI (HL-60(TB) leukemia) [µM] | TGI (K-562 leukemia) [µM] | TGI (MALME-3M melanoma) [µM] | TGI (MDA-MB-435) [µM] | TGI (MDA-N) [µM] | TGI (MOLT-4 leukemia) [µM] | TGI (NCI-H460 lung) [µM] | TGI (OVCAR-3 ovarian) [µM] | TGI (OVCAR-4 ovarian) [µM] | TGI (OVCAR-5 ovarian) [µM] | TGI (PC-3 prostate) [µM] | TGI (RXF 393 renal) [µM] | TGI (SF-295 CNS) [µM] | TGI (SF-539 CNS) [µM] | TGI (TK-10 renal) [µM] | TGI (DMS 273 small cell lung) [µM]
COC(=O)C1(c2cc3ccccc3n2S(=O)(=O)c2ccccc2)CC2C=CC1NC2 (configuration not stated) | 2.9 | 13 | 6.48 | 6.62 | 4.71 | 5.01 | > 22.8 | 3.86 | 6.23 | 4.95 | > 29.6 | 5.43 | 6.07 | 6.37 | 3.05 | 3.5 | 10.2 | 3.55 | 4.85 | 
CC(=O)OC1COC(Nc2ccc(C(C)=O)cc2)C(OC(C)=O)C1OC(C)=O (configuration not stated) | > 100 | > 100 |  |  |  | > 100 | > 100 |  |  | > 100 | > 100 | > 100 | > 100 |  |  | > 100 | > 100 | > 100 | > 100 | > 100
C=C(C)C1Cc2c(cc(O)c3c(=O)c4c(oc23)C(O)Oc2cc(OC)c(OC)cc2-4)O1 (configuration not stated) | > 10 | > 10 | > 10 | > 10 | > 10 | > 10 | > 10 | > 10 | > 10 | > 10 | > 10 | > 10 | > 10 | > 10 | > 10 | > 10 | > 10 | > 10 | > 10 | 
CC1(CO)OC(n2cc(C(=O)NC(=O)OCc3ccccc3)c(=O)[nH]c2=O)CC1O (configuration not stated) | > 100 | > 100 |  |  | > 100 | > 100 | > 100 |  |  | > 100 | > 100 | > 100 |  |  |  |  | > 100 | > 100 | > 100 | > 100
N#C/C(=C/c1ccc[nH]1)P(=O)(O)O | > 100 |  |  |  | > 100 | > 100 | > 100 |  |  | > 100 | > 100 | > 100 | > 100 | > 100 |  | > 100 | > 100 | > 100 | > 100 | > 100
Nc1ccc2nc(Nc3ccc(F)cc3)cnc2c1 | > 100 |  |  |  | > 100 | > 100 | > 100 |  |  | > 100 | > 100 | > 100 | > 100 | > 100 |  |  | > 100 | > 100 | > 100 | > 100
COC(=O)c1ccccc1CC1Cc2ccc3c(c2C1)CCC3 (configuration not stated) | > 100 | > 100 | > 100 | > 100 | 32.1 | > 100 | 38.6 | 57.9 | > 100 | 53.9 | > 100 | > 100 | > 100 | 91.3 | > 100 | 52.9 | > 100 | > 100 | > 100 | 
CC(=O)OC[C@]1(O)CC[C@@]23CC1C[C@@H]2CCC1C(C)(C)CCC[C@@]13C (some centres not stated) | 31.6 |  |  |  | 20.4 | 20.3 | 29.5 |  |  | 15.8 | 30.2 | 30.8 | 30 | 23.5 |  | 22.9 | 32 | 30.4 | 26.2 | 12.7
COC(=O)c1ccccc1C1CN=NC12Cc1ccc(C)c(C)c1C2=O (configuration not stated) | > 100 | > 100 | > 100 | > 100 | 69.7 | > 100 | > 100 | > 100 | > 100 | > 100 | > 100 | > 100 | > 100 | > 100 | > 100 | > 100 | > 100 | > 100 | > 100 | 
O=C(CCc1ccccc1)ON1C(=S)NC(c2ccccc2)(c2ccccc2)C1=S | > 100 | > 100 | > 100 | > 100 | 61.2 | > 100 | 71.5 | > 100 | > 100 | 75.5 | > 100 | > 100 | > 100 | > 100 | 63.8 | 93 | > 100 | > 100 | > 100 | 
C=CC(c1ccccc1)[C@@]1(OC(C)=O)C(=O)C(=O)OC1C1COC(C)(C)O1 (some centres not stated) | 33.4 | 47.9 | 30.1 | 54.2 | 5.86 | > 26 | 34.3 | 31.2 | 24.1 | 34.6 | 32.3 | 24.8 | 30.5 | 33.2 | 24.3 | 14.6 | 31.6 | 29.4 | 27.1 | 
CC(C)c1ccc(C2C3=C(N=C4SCC(=O)N42)C(=O)c2ccccc23)cc1 (configuration not stated) | > 100 | > 100 |  |  | > 100 | > 100 | > 100 |  |  | > 100 | > 100 | > 100 | > 100 | > 100 |  |  | > 100 | > 100 | > 100 | > 100
Cc1ccc(N=Nc2ccc(O)c(CN(C)C)c2)cc1C | > 100 | 47.4 | > 100 | 95.8 | 26.1 | 43.5 | 34.8 | 40.4 | > 100 | 61.5 | 42.6 | > 100 | > 100 | > 100 | > 100 | 57.8 | > 100 | 44.1 | 43.3 | 
Cc1ccc(NC(=O)CSc2nc(C)nc3c2sc(=S)n3-c2ccccc2)cc1 | 6.92 | > 10 | 9.55 | > 10 | > 10 | > 10 | > 10 | > 10 | > 10 | > 10 | > 10 | > 10 | 6.06 | > 10 | > 10 | 9.17 | > 10 | 7.81 | > 10 | 
